By pIC50 is commonly meant −log10 of the IC50, conventionally taken in molar units.

pIC50: −log10 of the molar value. Positions of bridges follow the written chain, without caps; N, C: chain ends. Non-standard residues stand in square brackets, D forms with d. Residues, ends and D or L forms follow the SMILES beside them. Bip(4'-COOH) = N[C@@H](Cc1ccc(-c2ccc(C(=O)O)cc2)cc1)C(=O)O; Bip(4'-NHAc) = CC(=O)Nc1ccc(-c2ccc(C[C@H](N)C(=O)O)cc2)cc1; Ala(morpholin-4-yl) = N[C@@H](CN1CCOCC1)C(=O)O; Phe(3-CONH2) = NC(=O)c1cccc(C[C@H](N)C(=O)O)c1; Bip = N[C@@H](Cc1ccc(-c2ccccc2)cc1)C(=O)O; Abu(3S-NH2) = C[C@H](N)[C@H](N)C(=O)O; 2Pal = N[C@@H](Cc1ccccn1)C(=O)O; 2Thi = N[C@@H](Cc1cccs1)C(=O)O; Cha = N[C@@H](CC1CCCCC1)C(=O)O; Chg = N[C@H](C(=O)O)C1CCCCC1; Dab = NCC[C@H](N)C(=O)O; Sar = CNCC(=O)O Bounds are passed on as bounds.

The target in this assay is TNFα (Homo sapiens, UniProt P01375). As to the kind of experiment: TNF-Induced HEK-Blue Assay. It counts as cell-based. Particulars: HEK-Blue-CD40L cells, NF-kB-driven secreted alkaline phosphatase reporter; TNFα 0.5 ng/ml; 18 h; read-out: TNF induced HEK-Blue assay IC50 value.
TNFα, sequence (P01375 77-233 limits assumed): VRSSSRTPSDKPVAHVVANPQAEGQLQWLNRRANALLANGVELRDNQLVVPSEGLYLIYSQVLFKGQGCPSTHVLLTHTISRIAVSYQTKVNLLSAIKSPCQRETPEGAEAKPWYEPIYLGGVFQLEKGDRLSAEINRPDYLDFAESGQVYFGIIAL
Regarding `CC(C)C[C@@H]1NC(=O)[C@H](CCCNC(=N)N)NC(=O)[C@H](C(C)C)NC(=O)[C@@H]2CCCN2C(=O)[C@H](C(C)C)NC(=O)[C@@H](CCCNC(=N)N)NC(=O)[C@H](CC(=O)O)NC(=O)[C@H](Cc2cnc[nH]2)NC(=O)CN(C)C(=O)[C@H](Cc2ccc(-c3ccccc3)cc2)NC(=O)[C@H](Cc2ccc(-c3ccccc3)cc2)NC(=O)[C@H](CN2CCOCC2)NC(=O)CSC[C@@H](C(=O)NCC(N)=O)NC1=O` [Example 229] ({CH2CO}-[Ala(morpholin-4-yl)][Bip][Bip][Sar]HD[dR]VPVRLCG-NH2; thioether N-13), the negative-log IC50 (pIC50) is 6.70 to 7.30.
With `CC(C)C[C@@H]1NC(=O)[C@H](CCCNC(=N)N)NC(=O)[C@H](C2CCCCC2)NC(=O)[C@@H]2CCCN2C(=O)[C@H](C(C)C)NC(=O)[C@@H](CCCNC(=N)N)NC(=O)[C@H](CC(=O)O)NC(=O)[C@H](Cc2cnc[nH]2)NC(=O)CN(C)C(=O)[C@H](Cc2ccc(-c3ccccc3)cc2)NC(=O)[C@H](Cc2ccc(-c3ccccc3)cc2)NC(=O)[C@H](CN2CCOCC2)NC(=O)CSC[C@@H](C(=O)NCC(N)=O)NC1=O` [Example 230] ({CH2CO}-[Ala(morpholin-4-yl)][Bip][Bip][Sar]HD[dR]VP[Chg]RLCG-NH2; thioether N-13) the figure was 6.70 to 7.30; with `CC(C)C[C@@H]1NC(=O)[C@H](Cc2ccccc2)NC(=O)[C@H](C(C)C)NC(=O)[C@@H]2CCCN2C(=O)[C@H](C(C)C)NC(=O)[C@@H](CCCNC(=N)N)NC(=O)[C@H](CC(=O)O)NC(=O)[C@H](Cc2cnc[nH]2)NC(=O)CN(C)C(=O)[C@H](Cc2ccc(-c3ccccc3)cc2)NC(=O)[C@H](Cc2ccc(-c3ccccc3)cc2)NC(=O)[C@H](CN2CCOCC2)NC(=O)CSC[C@@H](C(=O)NCC(N)=O)NC1=O` [Example 231] ({CH2CO}-[Ala(morpholin-4-yl)][Bip][Bip][Sar]HD[dR]VPVFLCG-NH2; thioether N-13), 6.70 to 7.30.
Next, `CC(=O)Nc1ccc(-c2ccc(C[C@@H]3NC(=O)[C@H](Cc4ccc(-c5ccccc5)cc4)NC(=O)[C@H](CN4CCOCC4)NC(=O)CSC[C@@H](C(=O)NCC(N)=O)NC(=O)[C@H](CC(C)C)NC(=O)[C@H](CCCNC(=N)N)NC(=O)[C@H](C4CCCCC4)NC(=O)[C@@H]4CCCN4C(=O)[C@H](C(C)C)NC(=O)[C@@H](CCCNC(=N)N)NC(=O)[C@H](CC(=O)O)NC(=O)[C@H](Cc4cnc[nH]4)NC(=O)CN(C)C3=O)cc2)cc1` [Example 232] ({CH2CO}-[Ala(morpholin-4-yl)][Bip][Bip(4'-NHAc)][Sar]HD[dR]VP[Chg]RLCG-NH2; thioether N-13): over 7.30.
For the compound `CC(=O)Nc1ccc(-c2ccc(C[C@@H]3NC(=O)[C@H](Cc4ccc(-c5ccccc5)cc4)NC(=O)[C@H](CC4CCCCC4)NC(=O)CSC[C@@H](C(=O)NCC(N)=O)NC(=O)[C@H](CC(C)C)NC(=O)[C@H](Cc4cccc(C(N)=O)c4)NC(=O)[C@H](C(C)C)NC(=O)[C@@H]4CCCN4C(=O)[C@H](C(C)C)NC(=O)[C@@H](CCCNC(=N)N)NC(=O)[C@H](CC(=O)O)NC(=O)[C@H](Cc4ccccn4)NC(=O)CN(C)C3=O)cc2)cc1` [Example 233] ({CH2CO}-[Cha][Bip][Bip(4'-NHAc)][Sar][2Pal]D[dR]VPV[Phe(3-CONH2)]LCG-NH2; thioether N-13), the pIC50 was over 7.30.
With `CC(=O)Nc1ccc(-c2ccc(C[C@@H]3NC(=O)[C@H](Cc4ccc(-c5ccc(C(=O)O)cc5)cc4)NC(=O)[C@H](CC4CCCCC4)NC(=O)CSC[C@@H](C(=O)NCC(N)=O)NC(=O)[C@H](CC(C)C)NC(=O)[C@H](Cc4cnc[nH]4)NC(=O)[C@H](C(C)C)NC(=O)[C@@H]4CCCN4C(=O)[C@H](C(C)C)NC(=O)[C@@H](CCCNC(=N)N)NC(=O)[C@H](CC(=O)O)NC(=O)[C@H](Cc4cnc[nH]4)NC(=O)CN(C)C3=O)cc2)cc1` [Example 234] ({CH2CO}-[Cha][Bip(4'-COOH)][Bip(4'-NHAc)][Sar]HD[dR]VPVHLCG-NH2; thioether N-13) the figure was over 7.30.
Next, `CC(=O)Nc1ccc(-c2ccc(C[C@@H]3NC(=O)[C@H](Cc4ccc(-c5ccccc5)cc4)NC(=O)[C@H](CC4CCCCC4)NC(=O)CSC[C@@H](C(=O)NCC(N)=O)NC(=O)[C@H](CC(C)C)NC(=O)[C@H](Cc4cccs4)NC(=O)[C@H](C(C)C)NC(=O)[C@@H]4CCCN4C(=O)[C@H](C(C)C)NC(=O)[C@@H](CCCNC(=N)N)NC(=O)[C@H](CC(=O)O)NC(=O)[C@H](Cc4ccccn4)NC(=O)CN(C)C3=O)cc2)cc1` [Example 235] ({CH2CO}-[Cha][Bip][Bip(4'-NHAc)][Sar][2Pal]D[dR]VPV[2Thi]LCG-NH2; thioether N-13): 5.70 to 6.70; `CC(=O)Nc1ccc(-c2ccc(C[C@@H]3NC(=O)[C@H](Cc4ccc(-c5ccc(C(=O)O)cc5)cc4)NC(=O)[C@H](CN4CCOCC4)NC(=O)CSC[C@@H](C(=O)NCC(N)=O)NC(=O)[C@H](CC(C)C)NC(=O)[C@H](Cc4ccc(O)cc4)NC(=O)[C@H](C(C)C)NC(=O)[C@@H]4CCCN4C(=O)[C@H](C(C)C)NC(=O)[C@@H](CCCNC(=N)N)NC(=O)[C@H](CC(=O)O)NC(=O)[C@@H]4CCCN4C(=O)CN(C)C3=O)cc2)cc1` [Example 236] ({CH2CO}-[Ala(morpholin-4-yl)][Bip(4'-COOH)][Bip(4'-NHAc)][Sar]PD[dR]VPVYLCG-NH2; thioether N-13): 5.70 to 6.70; `CC(=O)Nc1ccc(-c2ccc(C[C@@H]3NC(=O)[C@H](Cc4ccc(-c5ccc(C(=O)O)cc5)cc4)NC(=O)[C@H](CN4CCOCC4)NC(=O)CSC[C@@H](C(=O)NCC(N)=O)NC(=O)[C@H](CC(C)C)NC(=O)[C@H](Cc4ccc(O)cc4)NC(=O)[C@H](C4CCCCC4)NC(=O)[C@@H]4CCCN4C(=O)[C@H](C(C)C)NC(=O)[C@@H](CCCNC(=N)N)NC(=O)[C@H](CC(=O)O)NC(=O)[C@@H]4CCCN4C(=O)CN(C)C3=O)cc2)cc1` [Example 237] ({CH2CO}-[Ala(morpholin-4-yl)][Bip(4'-COOH)][Bip(4'-NHAc)][Sar]PD[dR]VP[Chg]YLCG-NH2; thioether N-13): 6.70 to 7.30.
With `CC[C@H](C)[C@@H]1NC(=O)[C@@H](CCCNC(=N)N)NC(=O)[C@H](CC(=O)O)NC(=O)[C@H](Cc2cnc[nH]2)NC(=O)CN(C)C(=O)[C@H](Cc2ccc(-c3ccc(NC(C)=O)cc3)cc2)NC(=O)[C@H](Cc2ccc(-c3ccccc3)cc2)NC(=O)[C@H](CN2CCOCC2)NC(=O)CSC[C@@H](C(=O)NCC(N)=O)NC(=O)[C@H](CC(C)C)NC(=O)[C@H](Cc2cnc[nH]2)NC(=O)[C@H](C(C)C)NC(=O)[C@@H]2CCCN2C1=O` [Example 238] ({CH2CO}-[Ala(morpholin-4-yl)][Bip][Bip(4'-NHAc)][Sar]HD[dR]IPVHLCG-NH2; thioether N-13) the figure was over 7.30; with `CC(=O)Nc1ccc(-c2ccc(C[C@@H]3NC(=O)[C@H](Cc4ccc(-c5ccccc5)cc4)NC(=O)[C@H](CC4CCCCC4)NC(=O)CSC[C@@H](C(=O)NCC(N)=O)NC(=O)[C@H](CC(C)C)NC(=O)[C@H](Cc4ccc(O)cc4)NC(=O)[C@H](C(C)C)NC(=O)[C@@H]4CCCN4C(=O)[C@H]([C@H](C)N)NC(=O)[C@@H](CCCNC(=N)N)NC(=O)[C@H](CC(=O)O)NC(=O)[C@@H]4CCCN4C(=O)CN(C)C3=O)cc2)cc1` [Example 239] ({CH2CO}-[Cha][Bip][Bip(4'-NHAc)][Sar]PD[dR][Abu(3S-NH2)]PVYLCG-NH2; thioether N-13), 6.70 to 7.30; with `CC(=O)Nc1ccc(-c2ccc(C[C@@H]3NC(=O)[C@H](Cc4ccc(-c5ccccc5)cc4)NC(=O)[C@H](CC4CCCCC4)NC(=O)CSC[C@@H](C(=O)NCC(N)=O)NC(=O)[C@H](CC(C)C)NC(=O)[C@H](Cc4cccc(C(N)=O)c4)NC(=O)[C@H](C(C)C)NC(=O)[C@@H]4CCCN4C(=O)[C@H](C(C)C)NC(=O)[C@@H](CCCNC(=N)N)NC(=O)[C@H](CC(=O)O)NC(=O)[C@@H]4CCCN4C(=O)CN(C)C3=O)cc2)cc1` [Example 240] ({CH2CO}-[Cha][Bip][Bip(4'-NHAc)][Sar]PD[dR]VPV[Phe(3-CONH2)]LCG-NH2; thioether N-13), 6.70 to 7.30.
Regarding `CC(=O)Nc1ccc(-c2ccc(C[C@@H]3NC(=O)[C@H](Cc4ccc(-c5ccc(C(=O)O)cc5)cc4)NC(=O)[C@H](CC4CCCCC4)NC(=O)CSC[C@@H](C(=O)N[C@@H](CCN)C(N)=O)NC(=O)[C@H](CC(C)C)NC(=O)[C@H](Cc4ccc(O)cc4)NC(=O)[C@H](C(C)C)NC(=O)[C@@H]4CCCN4C(=O)[C@H](C(C)C)NC(=O)[C@@H](CCCNC(=N)N)NC(=O)[C@H](CC(=O)O)NC(=O)[C@@H]4CCCN4C(=O)CN(C)C3=O)cc2)cc1` [Example 243] ({CH2CO}-[Cha][Bip(4'-COOH)][Bip(4'-NHAc)][Sar]PD[dR]VPVYLC[Dab]-NH2; thioether N-13), the pIC50 is 6.70 to 7.30.
With `CC(=O)Nc1ccc(-c2ccc(C[C@@H]3NC(=O)[C@H](Cc4ccc(-c5ccc(C(=O)O)cc5)cc4)NC(=O)[C@H](CC4CCCCC4)NC(=O)CSC[C@@H](C(=O)N[C@@H](CCC(N)=O)C(N)=O)NC(=O)[C@H](CC(C)C)NC(=O)[C@H](Cc4ccc(O)cc4)NC(=O)[C@H](C(C)C)NC(=O)[C@@H]4CCCN4C(=O)[C@H](C(C)C)NC(=O)[C@@H](CCCNC(=N)N)NC(=O)[C@H](CC(=O)O)NC(=O)[C@@H]4CCCN4C(=O)CN(C)C3=O)cc2)cc1` [Example 244] ({CH2CO}-[Cha][Bip(4'-COOH)][Bip(4'-NHAc)][Sar]PD[dR]VPVYLCQ-NH2; thioether N-13) the figure was 5.70 to 6.70.
With `CC(=O)Nc1ccc(-c2ccc(C[C@@H]3NC(=O)[C@H](Cc4ccc(-c5ccc(C(=O)O)cc5)cc4)NC(=O)[C@H](CC4CCCCC4)NC(=O)CSC[C@@H](C(=O)NCC(N)=O)NC(=O)[C@H](CC(C)C)NC(=O)[C@H](Cc4cccs4)NC(=O)[C@H](C(C)C)NC(=O)[C@@H]4CCCN4C(=O)[C@H](C(C)C)NC(=O)[C@@H](CCCNC(=N)N)NC(=O)[C@H](CC(=O)O)NC(=O)[C@@H]4CCCN4C(=O)CN(C)C3=O)cc2)cc1` [Example 245] ({CH2CO}-[Cha][Bip(4'-COOH)][Bip(4'-NHAc)][Sar]PD[dR]VPV[2Thi]LCG-NH2; thioether N-13) the figure was 5.70 to 6.70.

Values taken from patent publication US20250145665A1, “MACROCYCLIC PEPTIDES USEFUL AS MODULATORS OF TNF ALPHA” (Bristol-Myers Squibb Company, priority 2023, published 2025).
